Data as given in the NIST ThermoML archive (doi:10.1016/j.jct.2012.05.020).
Numbers after ± are expanded uncertainties.

Conditions: 101.33 kPa, Liquid, Vibrating tube method

mass density (293.16 K)	mass density (298.14 K)	mass density (303.14 K)	mass density (308.14 K)	mass density (313.14 K)	mass density (318.14 K)	mass density (323.14 K)	mass density (328.14 K)	mass density (333.14 K)	mass density (338.14 K)	mass density (343.14 K)	mass density (298.15 K)	mass density (303.15 K)	mass density (308.15 K)	mass density (313.15 K)	mass density (318.15 K)	mass density (323.18 K)	mass density (293.15 K)	SMILES
915.29 ± 2.9 kg/m3	912.33 ± 2.9 kg/m3	909.37 ± 2.9 kg/m3	906.41 ± 2.8 kg/m3	903.43 ± 2.8 kg/m3	900.5 ± 2.8 kg/m3	897.58 ± 2.8 kg/m3	894.67 ± 2.8 kg/m3	891.76 ± 2.8 kg/m3	888.84 ± 2.7 kg/m3	885.93 ± 2.7 kg/m3								CCCCCCCC[N+](C)(CCCCCCCC)CCCCCCCC.O=[N+]([O-])[O-] [N-methyl-N,N,N-trioctylammonium nitrate]
1240.25 ± 0.16 kg/m3											1236.81 ± 0.16 kg/m3	1233.39 ± 0.16 kg/m3	1229.98 ± 0.15 kg/m3	1226.59 ± 0.15 kg/m3	1223.22 ± 0.15 kg/m3	1219.84 ± 0.15 kg/m3		CCOS(=O)(=O)[O-].CCn1cc[n+](C)c1 [1-ethyl-3-methylimidazolium ethyl sulfate]
	886.45 ± 2.7 kg/m3	883.43 ± 2.7 kg/m3	880.41 ± 2.7 kg/m3	877.37 ± 2.7 kg/m3	874.35 ± 2.6 kg/m3	871.36 ± 2.6 kg/m3	868.37 ± 2.6 kg/m3	865.37 ± 2.6 kg/m3	862.37 ± 2.6 kg/m3	859.36 ± 2.6 kg/m3							889.47 ± 2.7 kg/m3	CCCCCCCC[N+](C)(CCCCCCCC)CCCCCCCC.[Cl-] [N-methyl-N,N-dioctyl-1-octanaminium chloride]
